Data as given in PubChem BioAssay (NCI).
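48-hour exposure; five concentrations; linearly interpolated endpoints. TGI denotes the concentration required for complete inhibition of growth.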

What was measured:
Assay in all cases: growth of human tumour cells (NCI), 48 h
HT29 colon = test system: HT29 colon
A498 renal = test system: A498 renal
SNB-75 CNS = test system: SNB-75 CNS
HL-60(TB) leukemia = test system: HL-60(TB) leukemia
NCI-H460 lung = test system: NCI-H460 lung
NCI-H522 lung = test system: NCI-H522 lung
786-0 renal = test system: 786-0 renal
SF-295 CNS = test system: SF-295 CNS
T-47D breast = test system: T-47D breast
M14 melanoma = test system: M14 melanoma
UACC-257 melanoma = test system: UACC-257 melanoma
SR leukemia = test system: SR leukemia
MCF7 breast = test system: MCF7 breast
HOP-92 NSCLC = test system: HOP-92 NSCLC
LOX IMVI melanoma = test system: LOX IMVI melanoma
SNB-19 CNS = test system: SNB-19 CNS
CCRF-CEM leukemia = test system: CCRF-CEM leukemia
U251 CNS = test system: U251 CNS
SK-MEL-5 melanoma = test system: SK-MEL-5 melanoma
OVCAR-8 ovarian = test system: OVCAR-8 ovarian
HCC-2998 colon = test system: HCC-2998 colon
EKVX NSCLC = test system: EKVX NSCLC
SF-268 CNS = test system: SF-268 CNS
MOLT-4 leukemia = test system: MOLT-4 leukemia
DU-145 prostate = test system: DU-145 prostate
SK-MEL-2 melanoma = test system: SK-MEL-2 melanoma
HOP-62 NSCLC = test system: HOP-62 NSCLC
CAKI-1 renal = test system: CAKI-1 renal
MDA-MB-231 breast = test system: MDA-MB-231 breast
OVCAR-3 ovarian = test system: OVCAR-3 ovarian
SK-MEL-28 melanoma = test system: SK-MEL-28 melanoma
K-562 leukemia = test system: K-562 leukemia
ACHN renal = test system: ACHN renal
COLO 205 colon = test system: COLO 205 colon
OVCAR-5 ovarian = test system: OVCAR-5 ovarian
NCI-H226 lung = test system: NCI-H226 lung
TK-10 renal = test system: TK-10 renal
A549 NSCLC = test system: A549 NSCLC
SN12C renal = test system: SN12C renal
KM12 colon = test system: KM12 colon
UACC-62 melanoma = test system: UACC-62 melanoma
SF-539 CNS = test system: SF-539 CNS
PC-3 prostate = test system: PC-3 prostate
SK-OV-3 ovarian = test system: SK-OV-3 ovarian
MALME-3M melanoma = test system: MALME-3M melanoma
MDA-N = test system: MDA-N
RPMI-8226 leukemia = test system: RPMI-8226 leukemia
HS 578T breast = test system: HS 578T breast
SW-620 colon = test system: SW-620 colon
HCT-116 colon = test system: HCT-116 colon
RXF 393 renal = test system: RXF 393 renal
NCI/ADR-RES ovarian = test system: NCI/ADR-RES ovarian
IGROV1 ovarian = test system: IGROV1 ovarian
OVCAR-4 ovarian = test system: OVCAR-4 ovarian
UO-31 renal = test system: UO-31 renal
MDA-MB-435 = test system: MDA-MB-435
NCI-H23 lung = test system: NCI-H23 lung
HCT-15 colon = test system: HCT-15 colon
BT-549 breast = test system: BT-549 breast

SMILES: CN(NC(=O)/C(=C/c1ccc(O)cc1)NC(=O)c1ccccc1)c1ccnc2cc(Cl)ccc12
- TGI (HT29 colon): 23 µM
- TGI (A498 renal): 32.4 µM
- TGI (SNB-75 CNS): 22.8 µM
- TGI (HL-60(TB) leukemia): 5.84 µM
- TGI (NCI-H460 lung): 31.2 µM
- TGI (NCI-H522 lung): 60.7 µM
- TGI (786-0 renal): 35.8 µM
- TGI (SF-295 CNS): 32.3 µM
- TGI (T-47D breast): 45.6 µM
- TGI (M14 melanoma): 36.6 µM
- TGI (UACC-257 melanoma): 33.9 µM
- TGI (SR leukemia): 10.4 µM
- TGI (MCF7 breast): 30.4 µM
- TGI (HOP-92 NSCLC): 32.2 µM
- TGI (LOX IMVI melanoma): 37.2 µM
- TGI (SNB-19 CNS): 32.6 µM
- TGI (CCRF-CEM leukemia): 61.5 µM
- TGI (U251 CNS): 28.5 µM
- TGI (SK-MEL-5 melanoma): 37.5 µM
- TGI (OVCAR-8 ovarian): 47 µM
- TGI (HCC-2998 colon): 33.3 µM
- TGI (EKVX NSCLC): 42.9 µM
- TGI (SF-268 CNS): 36 µM
- TGI (MOLT-4 leukemia): 43 µM
- TGI (DU-145 prostate): 56.9 µM
- TGI (SK-MEL-2 melanoma): 44.4 µM
- TGI (HOP-62 NSCLC): 30.1 µM
- TGI (CAKI-1 renal): 33.8 µM
- TGI (MDA-MB-231 breast): 40.4 µM
- TGI (OVCAR-3 ovarian): 31.2 µM
- TGI (SK-MEL-28 melanoma): 38.1 µM
- TGI (K-562 leukemia): 30.5 µM
- TGI (ACHN renal): 33 µM
- TGI (COLO 205 colon): 36.2 µM
- TGI (OVCAR-5 ovarian): 50.5 µM
- TGI (NCI-H226 lung): 32.7 µM
- TGI (TK-10 renal): 30 µM
- TGI (A549 NSCLC): 38.4 µM
- TGI (SN12C renal): 48.6 µM
- TGI (KM12 colon): 35.8 µM
- TGI (UACC-62 melanoma): 31.8 µM
- TGI (SF-539 CNS): 43.3 µM
- TGI (PC-3 prostate): 32.7 µM
- TGI (SK-OV-3 ovarian): 36.6 µM
- TGI (MALME-3M melanoma): 39.8 µM
- TGI (MDA-N): 32.2 µM
- TGI (RPMI-8226 leukemia): 40.7 µM
- TGI (HS 578T breast): 48.2 µM
- TGI (SW-620 colon): 47.2 µM
- TGI (HCT-116 colon): 38.2 µM
- TGI (RXF 393 renal): 32 µM
- TGI (NCI/ADR-RES ovarian): 38 µM
- TGI (IGROV1 ovarian): 34.1 µM
- TGI (OVCAR-4 ovarian): 33.6 µM
- TGI (UO-31 renal): 18.6 µM
- TGI (MDA-MB-435): 32.3 µM

SMILES: O=c1c(Cl)nsnc1Cl
- TGI (HT29 colon): 60.2 µM
- TGI (A498 renal): 28.8 µM
- TGI (SNB-75 CNS): > 53.1 µM
- TGI (NCI-H460 lung): > 73.1 µM
- TGI (NCI-H522 lung): 3.81 µM
- TGI (786-0 renal): 3.32 µM
- TGI (SF-295 CNS): 40.8 µM
- TGI (T-47D breast): > 31.6 µM
- TGI (M14 melanoma): 12.8 µM
- TGI (UACC-257 melanoma): 26.8 µM
- TGI (SR leukemia): 4.43 µM
- TGI (MCF7 breast): 31.5 µM
- TGI (HOP-92 NSCLC): 13 µM
- TGI (LOX IMVI melanoma): 27.2 µM
- TGI (SNB-19 CNS): 49.1 µM
- TGI (CCRF-CEM leukemia): 3.27 µM
- TGI (U251 CNS): 35.9 µM
- TGI (SK-MEL-5 melanoma): 32.8 µM
- TGI (OVCAR-8 ovarian): > 91.6 µM
- TGI (HCC-2998 colon): 35.2 µM
- TGI (EKVX NSCLC): 58.2 µM
- TGI (SF-268 CNS): 71.3 µM
- TGI (MOLT-4 leukemia): 4.09 µM
- TGI (DU-145 prostate): 31.5 µM
- TGI (NCI-H23 lung): 50.5 µM
- TGI (SK-MEL-2 melanoma): > 100 µM
- TGI (HOP-62 NSCLC): 34.5 µM
- TGI (CAKI-1 renal): 37.3 µM
- TGI (MDA-MB-231 breast): 41.8 µM
- TGI (OVCAR-3 ovarian): 17.1 µM
- TGI (SK-MEL-28 melanoma): 35.1 µM
- TGI (K-562 leukemia): 3.58 µM
- TGI (ACHN renal): 14.7 µM
- TGI (COLO 205 colon): 3.87 µM
- TGI (OVCAR-5 ovarian): 38.6 µM
- TGI (NCI-H226 lung): 53.2 µM
- TGI (TK-10 renal): 7.93 µM
- TGI (A549 NSCLC): 65.4 µM
- TGI (HCT-15 colon): 51.1 µM
- TGI (SN12C renal): 48.4 µM
- TGI (KM12 colon): > 57.8 µM
- TGI (UACC-62 melanoma): 33.4 µM
- TGI (SF-539 CNS): 28.1 µM
- TGI (PC-3 prostate): 39.1 µM
- TGI (SK-OV-3 ovarian): 35 µM
- TGI (MALME-3M melanoma): 84.5 µM
- TGI (MDA-N): 36.9 µM
- TGI (RPMI-8226 leukemia): 5.22 µM
- TGI (HS 578T breast): 78.9 µM
- TGI (SW-620 colon): 31.5 µM
- TGI (HCT-116 colon): 20.5 µM
- TGI (RXF 393 renal): 24.8 µM
- TGI (NCI/ADR-RES ovarian): > 100 µM
- TGI (IGROV1 ovarian): 32.4 µM
- TGI (OVCAR-4 ovarian): 49.4 µM
- TGI (UO-31 renal): 74.5 µM
- TGI (MDA-MB-435): 28.1 µM

SMILES: CCOC(=O)C1=CN=C2C(=O)N(c3ccccc3)N(C)C2(C)C1=N (stereo not given)
- TGI (A498 renal): > 100 µM
- TGI (SNB-75 CNS): > 100 µM
- TGI (HL-60(TB) leukemia): > 100 µM
- TGI (NCI-H460 lung): > 100 µM
- TGI (NCI-H522 lung): > 100 µM
- TGI (786-0 renal): > 100 µM
- TGI (SF-295 CNS): > 100 µM
- TGI (M14 melanoma): > 100 µM
- TGI (UACC-257 melanoma): > 100 µM
- TGI (MCF7 breast): > 100 µM
- TGI (HOP-92 NSCLC): > 100 µM
- TGI (LOX IMVI melanoma): > 100 µM
- TGI (SNB-19 CNS): > 100 µM
- TGI (CCRF-CEM leukemia): > 100 µM
- TGI (U251 CNS): > 100 µM
- TGI (SK-MEL-5 melanoma): > 100 µM
- TGI (OVCAR-8 ovarian): > 100 µM
- TGI (HCC-2998 colon): > 100 µM
- TGI (EKVX NSCLC): > 100 µM
- TGI (DU-145 prostate): > 100 µM
- TGI (NCI-H23 lung): > 100 µM
- TGI (SK-MEL-2 melanoma): > 100 µM
- TGI (CAKI-1 renal): > 100 µM
- TGI (MDA-MB-231 breast): > 100 µM
- TGI (OVCAR-3 ovarian): > 100 µM
- TGI (SK-MEL-28 melanoma): > 100 µM
- TGI (K-562 leukemia): > 100 µM
- TGI (ACHN renal): > 100 µM
- TGI (COLO 205 colon): > 100 µM
- TGI (OVCAR-5 ovarian): > 100 µM
- TGI (NCI-H226 lung): > 100 µM
- TGI (TK-10 renal): > 100 µM
- TGI (A549 NSCLC): > 100 µM
- TGI (HCT-15 colon): > 100 µM
- TGI (SN12C renal): > 100 µM
- TGI (KM12 colon): > 100 µM
- TGI (UACC-62 melanoma): > 100 µM
- TGI (SF-539 CNS): > 100 µM
- TGI (PC-3 prostate): > 100 µM
- TGI (SK-OV-3 ovarian): > 100 µM
- TGI (MALME-3M melanoma): > 100 µM
- TGI (MDA-N): > 100 µM
- TGI (RPMI-8226 leukemia): > 100 µM
- TGI (SW-620 colon): > 100 µM
- TGI (BT-549 breast): > 100 µM
- TGI (HCT-116 colon): > 100 µM
- TGI (RXF 393 renal): > 100 µM
- TGI (NCI/ADR-RES ovarian): > 100 µM
- TGI (IGROV1 ovarian): > 100 µM
- TGI (OVCAR-4 ovarian): > 100 µM
- TGI (UO-31 renal): > 100 µM
- TGI (MDA-MB-435): > 100 µM
